Laboratory results as given in paper PMC11173677, “Identification and Evaluation of Olive Phenolics in the Context of Amine Oxidase Enzyme Inhibition and Depression: In Silico Modelling and In Vitro Validation” (Molecules, 2024).

Columns and labels:
BJ cells = experiment: Viability of BJ cells (CellTiter-Blue Cell Viability Assay); type: cell-based, human; details: for IC50: Homo sapiens, BJ
Method: The BJ cells were seeded at densities of 10,000 cells in black flat bottom 96-well plates (Nalge Nunc, Penfield, Rochester, NY, USA) and treated with a dose–response of OLC (0–500 μM) and OLP (0–500 μM) for 24 h, 48 h, 72 h, and 7 days at 37 °C, 5% (v/v) CO2. Cell viability was measured using the Cell-Titer Blue® Assay kit (Promega, Madison, WI, USA) according to the manufacturer’s instructions. Cell-Titer Blue reagent was added to each well and incubated for 4 h at 37 °C with 5% (v/v) CO2 before the fluorescence intensity was read using the CLARIOstar Microplate Reader (BMG Labtech, Ortenberg, Germany).
A Nikon Eclipse Ts2 light microscope (Nikon Ti TS2-S-SM, Tokyo, Japan) was used to image untreated and treated BJ cells (OLP or OLC: 0–100 μM) at 4× objective magnification at 20, 44, and 120 h (Figures S1 and S2).

purified LSD1 = purified LSD1 (Homo sapiens, UniProt O60341); experiment: LSD1 direct screening assay (Epigentek inhibitory screening kit); type: biochemical; details: direct incubation with purified LSD1, Epigentek kit; read-out: IC50, inhibition of LSD1
Method: Fluorescence was measured using a CLARIOstar Plus Microplate Reader (BMG Labtech, Ortenberg, Germany) at excitation and emission wavelengths of 530 nm and 590 nm, respectively (Ex/Em = 530/590 nm).

purified MAO-B = target: T1, purified MAO-B (Homo sapiens, UniProt P27338); experiment: MAO-B direct screening assay (inhibitor screening kit); type: biochemical; details: purified enzyme; read-out: IC50, inhibition of MAO-B
T1 construct: purchased Sigma-Aldrich MAK296
T1 sequence (P27338 1-520): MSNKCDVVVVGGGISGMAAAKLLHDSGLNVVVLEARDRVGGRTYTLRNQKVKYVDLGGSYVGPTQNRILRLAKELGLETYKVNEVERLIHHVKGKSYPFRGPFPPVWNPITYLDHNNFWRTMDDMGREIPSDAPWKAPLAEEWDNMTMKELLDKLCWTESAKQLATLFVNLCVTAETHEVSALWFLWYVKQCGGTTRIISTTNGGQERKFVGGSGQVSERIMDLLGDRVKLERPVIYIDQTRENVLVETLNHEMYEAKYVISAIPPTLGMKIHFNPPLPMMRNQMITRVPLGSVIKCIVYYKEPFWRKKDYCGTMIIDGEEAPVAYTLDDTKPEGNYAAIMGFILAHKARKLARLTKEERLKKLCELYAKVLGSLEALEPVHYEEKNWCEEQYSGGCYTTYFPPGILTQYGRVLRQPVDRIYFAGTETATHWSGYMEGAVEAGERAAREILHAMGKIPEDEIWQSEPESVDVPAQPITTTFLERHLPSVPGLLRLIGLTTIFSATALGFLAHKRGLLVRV
Method: The assays were conducted for MAO-A and MAO-B according to the manufacturer’s instructions.

MAO-B = test system: T2, MAO-B; experiment: MAO-B activity assay in hESC-derived neurons stimulated with ATRA; type: cell-based, human; details: 1 μM ATRA 24 h, then TCP 5 μM, OLC 50 μM or OLP 50 μM for 24 h
T2 construct: endogenous in cells; host or cells: BJ human foreskin fibroblasts stimulated with DEX or HC
Method: (§1) An in vitro model of MDD was designed for stem cell-derived neuronal cells through incubation of 1 μM all-trans retinoic acid (Sigma-Aldrich PHR1187, St. Louis, MO, USA). All cell treatments were conducted in duplicate and replicated using independently differentiating neuronal plates.
(§2) Activity assays were commercially sourced from BioVision (Abcam, BioVision ab241031, Waltham, MA, USA) and were performed according to manufacturer’s instructions. The treatment groups were plated in duplicate on a black, flat 96-well microplate. The cells were homogenised in assay buffer using a microtube mixer at 4 °C and centrifuged at 10,000× g for 10 min. A Bradford assay was performed to determine the total protein concentration within each cell pellet (200 μg/well for BJ cells, 40 μg/well for hESC-derived neurons). Approximately 40 μL of supernatant was loaded into wells along with 10 μL of either […], or assay buffer for total MAO activity. A H2O2 standard was pipetted as supplied and 50 μL of reaction mix was pipetted into all wells. Using a CLARIOstar Plus Microplate Reader, (BMG Labtech, Ortenberg, Germany), fluorescence was measured kinetically at 25 °C for 60 min with Ex/Em = 535/587 nm.

total MAO = experiment: Total MAO activity assay in hESC-derived neurons stimulated with ATRA; type: cell-based, human; details: 1 μM ATRA 24 h, then TCP 5 μM, OLC 50 μM or OLP 50 μM for 24 h
Method: as §1, §2

MAO-A/B expression = experiment: MAO-A/B protein expression in HC- or DEX-stimulated BJ cells (Western blotting); type: cell-based, human; details: 10 μM HC 5 days or 100 μM DEX 7 days, then 50 μM compound; Western blot
Method: The BJ cells were subsequently incubated with 10 μM HC or 100 μM DEX to stimulate MAO expression. […] The untreated BJ cells received normal growth medium. The cells were collected, homogenised, and analysed through Western blotting where the expression of MAO-A/B was determined through immunodetection of protein subtypes.

With COC(=O)[C@H](O)CC(=O)OCCc1ccc(O)c(O)c1 [OLP, oleohydroxypyretol] the “relative viability of BJ cells at the highest concentration” value (BJ cells; 500 μM) was “decreased”, the “proliferation potential of BJ cells” value (BJ cells; 25, 50, 75 and 100 μM, similar to untreated cells) was “maintained their proliferation potential” and the IC50 (BJ cells; 24 h) was 220 µM. For the same molecule, the IC50 (BJ cells; 48 h) was 257 µM, the “toxicity to BJ cells at the concentrations used in further experiments” value (BJ cells; concentrations used in further experiments (50 μM)) was “non-toxic” and the “viability of BJ cells at lower concentrations” value (BJ cells; up to 200 μM) was “largely maintained”. For the same molecule, the IC50 (purified LSD1) was 0.8 µM, the IC50 (purified MAO-B) was 32 µM and the “MAO-B activity in hESC-derived neurons” value (MAO-B) was “significantly reduced”. The “total MAO activity in hESC-derived neurons” value (total MAO) was “significantly reduced” and the “MAO enzyme expression within BJ cells” value (MAO-A/B expression) was “Potent inhibition”.
